In US20050107616A1, “Alpha-ketoamide derivatives as cathepsin k inhibitors” (priority 2001, published 2005) one finds Ki data, which are given here for 17 compounds.

The target in the assay is T1, human cathepsin K (Homo sapiens, UniProt P43235).
T1 construct: The proform of cathepsin K was converted to mature cathepsin K by brief exposure to pH 4; made in house; host or cells: baculovirus; Trichoplusia ni High Five cells (virus raised in Sf-9)
T1 sequence (P43235 115-329): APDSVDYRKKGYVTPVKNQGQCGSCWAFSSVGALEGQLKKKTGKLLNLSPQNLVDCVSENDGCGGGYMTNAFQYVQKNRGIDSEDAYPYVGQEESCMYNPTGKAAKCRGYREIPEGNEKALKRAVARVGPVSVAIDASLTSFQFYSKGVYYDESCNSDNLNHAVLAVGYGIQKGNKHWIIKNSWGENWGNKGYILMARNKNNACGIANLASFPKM
As to the kind of experiment: Cathepsin K inhibition assay, fluorogenic substrate Cbz-Phe-Arg-AMC, progress curve method. The following applies: Table 1; human recombinant enzyme, pH 5.5, 30° C., 10 μM substrate; read-out: hCat K Ki. The assay is classed as biochemical. Here is the method: All assays for cathepsin K were carried out with human and rat recombinant enzyme. Assays for cathepsins S Et V were also carried out with human recombinant enzyme. Assays for human cathepsins B. H. and L were carried out with enzyme, purchased from Athens Research and Technology, Inc., prepared from human liver tissue. […] A stock substrate solution of Cbz-Phe-Arg-AMC was prepared at a concentration of 50 mM in dimethyl sulfoxide. This substrate was diluted into the assay for a final substrate concentration of 10 μM in the rat cathepsin K, human cathepsin K, and human cathepsin B assays; a final substrate concentration of 5 μM in the human cathepsin L assay; and a final substrate concentration of 2 μM in the human cathepsin V assay.
All assays contained 10% dimethyl sulfoxide. […] All assays were conducted at 30° C. Product fluorescence (excitation at 360 nm; emission at 440 nm, (except cathepsin H which used excitation at 340 nm; emission at 420 nm)) was monitored with a PerSeptive Biosystems Cytofluor II fluorescence plate reader. Product progress curves were generated over 2.3 h monitoring the formation of 7-amino-4-methylcoumarin product (or β-naphthalamide for cathepsin H).
Two liters of Spodoptera frugiperda (Sf-9) cells (ATCC) were grown in Grace's Supplemented medium (Life Technologies) supplemented with 2 g/L glucose, 10% a fetal bovine serum (HyClone) and 0.10% pluronic F-68 (Life Technologies). […] The cells continued to grow for 72 h post-infection, before the virus was harvested by centrifugation at 1400× g for 30 min.
One and one-half liters of Trichoplusia ni (T. ni) High Five (TM) cells [JRH Biosciences, Woodland, Calif. […] Media were separated from cells at a rate of 1 L/min using the Centritech 100 (TM) continuous-flow centrifuge (DuPont) operating at 200× g.
Protein Purification: Media (human and rat) were filtered through a Whatman 3 filter, and then loaded onto a 25 mL Poros HS II (26 mm×47 mm) cation exchange column equilibrated in 25 mM sodium acetate at pH 5.5 (equilibration buffer). The column was washed until the absorbance reached the baseline value, and then the protein was eluted with a linear gradient from 0-2 M sodium chloride in the equilibration buffer. Column fractions were analyzed by SDS-PAGE, N-terminal sequencing, and mass spectrometry. Fractions containing the proform of cathepsin K were pooled and frozen at −80° C. The proform was concentrated in an Amicon Centriprep 10 and fractionated with a Superdex 75 column (26 mm×600 mm, Pharmacia) equilibrated in 400 mM sodium chloride, 25 mM sodium acetate at pH 5.5.
Cathepsin K Activation: The proform of cathepsin K was converted to mature cathepsin K by brief exposure to pH 4 in the presence of 5 mM L-cysteine. Typically, 5 mM L-cysteine was added to 10 mL of approximately 1 mg/mL procathepsin K. One mL of this solution was diluted ten-fold into 450 mM sodium acetate at pH 4.0 containing 5 mM L-cysteine. This solution was reacted at 23° C. for 2 min before neutralization with 2 mL 1.8 M sodium acetate at pH 6.0. The neutralized sample was added to the remaining 9 mL of procathepsin K. The mixture was incubated at 4° C. for 2-3 days. The activated cathepsin K was chromatographed on a Poros HS II column as described above.
Potential inhibitors were evaluated using the progress curve method. Assays were carried out in the presence of variable concentrations of test compound. Reactions were initiated by addition of buffered solutions of inhibitor and substrate to enzyme. Data analysis was conducted according to one of two procedures depending on the appearance of the progress curves in the presence of inhibitors. […] Ki values were calculated from IC50 values using equation 2 assuming a competitive model. [formula]
With `CCCC[C@H](NC(=O)O[C@H](Cn1ccc(-c2ccc(C(F)(F)F)cc2)n1)C(C)(C)C)C(=O)C(=O)NCc1ccno1` [Example 36, (1S)-2,2-dimethyl-1-({3-[4-(trifluoromethyl)phenyl]-1H-pyrazol-1-yl}methyl)propyl(1S)-1-[[(5-isoxazolylmethyl)amino](oxo)acetyl]pentylcarbamate], the Ki is 1 to 100 nM.

As to `CCCC[C@H](NC(=O)O[C@@H](c1nnc(-c2ccc(C(F)(F)F)cc2)o1)C(C)(C)C)C(=O)C(=O)Nc1ccn[nH]1` [Example 40, (1R)-2,2-dimethyl-1-{5-[4-(trifluoromethyl)phenyl]-1,3,4-oxadiazol-2-yl}propyl(1S)-1-[oxo(1H-pyrazol-5-ylamino)acetyl]pentylcarbamate], the Ki lay within 100 to 10000 nM. With `CCCC[C@H](NC(=O)O[C@@H](c1cccc(-c2ccccc2)c1)C(C)(C)C)C(=O)C(=O)Nc1ccn[nH]1` [Example 41, (1R)-1-[1,1′-biphenyl]-3-yl-2,2-dimethylpropyl(1S)-1-[oxo(1H-pyrazol-5-ylamino)acetyl]pentylcarbamate], the Ki is 100 to 10000 nM.

With `CCCC[C@H](NC(=O)O[C@H](c1cccc(-c2ccccc2)c1)C(C)(C)C)C(=O)C(=O)Nc1ccn[nH]1` [Example 42, (1S)-1-[1,1′-biphenyl]-3-yl-2,2-dimethylpropyl(1S)-1-[oxo(1H-pyrazol-5-ylamino)acetyl]pentylcarbamate], the Ki was 0.01 to 1 nM. Under `CCCC[C@H](NC(=O)O[C@@H](c1nc2c(OCC)ccc(OCC)c2n1C)C(C)(C)C)C(=O)C(=O)Nc1ccn[nH]1` [Example 43] stands 100 to 10000 nM; under `CCCC[C@H](NC(=O)O[C@H](Cn1ccc(-c2cccnc2)n1)C(C)(C)C)C(=O)C(=O)Nc1ccn[nH]1` [Example 44, (1S)-2,2-dimethyl-1-{[3-(3-pyridinyl)-1H-pyrazol-1-yl]methyl}propyl (1S)-1-[oxo(1H-pyrazol-5-ylamino)acetyl]pentylcarbamate], 0.01 to 1 nM.

Take `CCCC[C@H](NC(=O)O[C@H](Cn1ccc(-c2ccncc2)n1)C(C)(C)C)C(=O)C(=O)Nc1ccn[nH]1` [Example 45, (1S)-2,2-dimethyl-1-{[3-(4-pyridinyl)-1H-pyrazol-1-yl]methyl}propyl(1S)-1-[oxo(1H-pyrazol-5-ylamino)acetyl]pentylcarbamate]: the inhibitory constant (Ki) is 0.01 to 1 nM. Regarding `CCCC[C@H](NC(=O)O[C@H](Cn1ccc(-c2ccc(C(F)(F)F)cc2)n1)C(C)(C)C)C(=O)C(=O)Nc1nccs1` [Example 46, (1S)-2,2-dimethyl-1-({3-[4-(trifluoromethyl)phenyl]-1H-pyrazol-1-yl}methyl)propyl(1S)-1-[oxo(1,3-thiazol-2-ylamino)acetyl]pentylcarbamate], the Ki lay within 0.01 to 1 nM. Next, `CCCC[C@H](NC(=O)O[C@H](COc1ccc(OCc2ccccc2)cc1)C(C)(C)C)C(=O)C(=O)Nc1ccn[nH]1` [Example 47, (1S)-1-{[4-(benzyloxy)phenoxy]methyl}-2,2-dimethylpropyl(1S)-1-[oxo(1H-pyrazol-5-ylamino)acetyl]pentylcarbamate]: 0.01 to 1 nM. Take `CCCC[C@H](NC(=O)O[C@H](COc1ccc(C(N)=O)cc1)C(C)(C)C)C(=O)C(=O)Nc1ccn[nH]1` [Example 48, (1S)-1-{[4-(aminocarbonyl)phenoxy]methyl}-2,2-dimethylpropyl(1S)-1-[oxo(1H-pyrazol-5-ylamino)acetyl]pentylcarbamate]: the Ki was 0.01 to 1 nM.

As for `CCCC[C@H](NC(=O)O[C@H](COc1ccc(-n2ccnc2)cc1)C(C)(C)C)C(=O)C(=O)Nc1ccn[nH]1` [Example 49, (1S)-1-{[4-(1H-imidazol-1-yl)phenoxy]methyl}-2,2-dimethylpropyl(1S)-1-[oxo(1H-pyrazol-5-ylamino)acetyl]pentylcarbamate], the Ki was 0.01 to 1 nM.

On to `CCCC[C@H](NC(=O)O[C@H](Cn1cnc(-c2cc(C(F)(F)F)cc(C(F)(F)F)c2)c1)C(C)(C)C)C(=O)C(=O)Nc1ccn[nH]1` [Example 50, (1S)-1-({4-[3,5-bis(trifluoromethyl)phenyl]-1H-imidazol-1-yl}methyl)-2,2-dimethylpropyl(1S)-1-[oxo(1H-pyrazol-5-ylamino)acetyl]pentylcarbamate], for which the Ki lay within 0.01 to 1 nM. Turning to `CCCC[C@H](NC(=O)O[C@H](Cn1cnc(-c2ccc(C(F)(F)F)cc2)c1)C(C)(C)C)C(=O)C(=O)Nc1nccs1` [Example 51, (1S)-2,2-dimethyl-1-({4-[4-(trifluoromethyl)phenyl]-1H-imidazol-1-yl}methyl)propyl(1S)-1-[oxo(1,3-thiazol-2-ylamino)acetyl]pentylcarbamate], the Ki was 1 to 100 nM.

For the compound `CCCC[C@H](NC(=O)O[C@H](c1nnc(-c2cccnc2)o1)C(C)(C)C)C(=O)C(=O)Nc1ccn[nH]1` [Example 52, (1S)-2,2-dimethyl-1-[5-(3-pyridinyl)-1,3,4-oxadiazol-2-yl]propyl(1S)-1-[oxo(1H-pyrazol-5-ylamino)acetyl]pentylcarbamate], the Ki lay in the range of 0.01 to 1 nM. For the compound `CCCC[C@H](NC(=O)O[C@@H](c1nnc(-c2cccnc2)o1)C(C)(C)C)C(=O)C(=O)Nc1ccn[nH]1` [Example 53, (1R)-2,2-dimethyl-1-[5-(3-pyridinyl)-1,3,4-oxadiazol-2-yl]propyl(1S)-1-[oxo(1H-pyrazol-5-ylamino)acetyl]pentylcarbamate], the inhibitory constant (Ki) fell in the range of 1 to 100 nM.

As to `CCCC[C@H](NC(=O)O[C@H](c1nnc(-c2ccncc2)o1)C(C)(C)C)C(=O)C(=O)Nc1ccn[nH]1` [Example 54, (1S)-2,2-dimethyl-1-[5-(4-pyridinyl)-1,3,4-oxadiazol-2-yl]propyl(1S)-1-[oxo(1H-pyrazol-5-ylamino)acetyl]pentylcarbamate], the Ki is 0.01 to 1 nM. Regarding `CCCC[C@H](NC(=O)O[C@@H](c1nnc(-c2ccncc2)o1)C(C)(C)C)C(=O)C(=O)Nc1ccn[nH]1` [Example 55, (1R)-2,2-dimethyl-1-[5-(4-pyridinyl)-1,3,4-oxadiazol-2-yl]propyl (1S)-1-[oxo(1H-pyrazol-5-ylamino)acetyl]pentylcarbamate], the inhibition constant (Ki) was in the range of 100 to 10000 nM.

Usually Ki stands for a measure of affinity in units of concentration, obtained from inhibition or displacement.
